Where a SMILES comes first, the peptide text is derived from it. Where no end group is shown, it is not given here. [ ]: non-standard residue; d: D form. The star is where a group is joined. pT = C[C@@H](OP(=O)(O)O)[C@H](N)C(=O)O; Hyp = O=C(O)[C@@H]1C[C@@H](O)CN1; Butyl(4-Ph) = c1ccc(CCCC*)cc1
Tests used:
[1] = molecular target: HA-EGFP-Plk1 (Plk1 PBD) in mitotic 293A cell lysates (Homo sapiens, UniProt P53350); assay: ELISA-based PBD-binding inhibition assay; settings: relative comparison; oxime libraries tested as crude reaction mixtures
Sequence of HA-EGFP-Plk1 (Plk1 PBD) in mitotic 293A cell lysates (P53350 whole entry): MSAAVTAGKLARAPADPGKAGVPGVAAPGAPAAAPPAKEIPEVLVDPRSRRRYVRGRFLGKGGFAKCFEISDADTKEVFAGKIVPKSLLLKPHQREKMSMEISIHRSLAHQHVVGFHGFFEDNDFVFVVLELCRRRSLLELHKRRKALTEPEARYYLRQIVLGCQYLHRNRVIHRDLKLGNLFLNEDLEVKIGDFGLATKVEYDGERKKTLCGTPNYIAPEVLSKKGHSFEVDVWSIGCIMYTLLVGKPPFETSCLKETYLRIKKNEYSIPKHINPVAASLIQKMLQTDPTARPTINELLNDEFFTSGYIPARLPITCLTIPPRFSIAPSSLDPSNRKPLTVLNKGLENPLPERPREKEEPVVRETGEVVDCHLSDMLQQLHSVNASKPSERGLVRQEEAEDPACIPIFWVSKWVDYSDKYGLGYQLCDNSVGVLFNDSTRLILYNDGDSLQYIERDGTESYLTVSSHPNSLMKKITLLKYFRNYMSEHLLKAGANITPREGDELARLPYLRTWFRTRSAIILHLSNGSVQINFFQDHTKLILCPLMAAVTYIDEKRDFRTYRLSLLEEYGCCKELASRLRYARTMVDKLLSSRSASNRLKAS

Flag-Plk2 (K108M) = Flag-Plk2 (K108M) (Mus musculus, UniProt P53351, K108M); assay: Peptide pull-down assay from mitotic 293T cell lysates, Plk2; settings: bead-immobilized peptide, anti-Flag immunoblot
Sequence of Flag-Plk2 (K108M) (P53351 whole entry K108M): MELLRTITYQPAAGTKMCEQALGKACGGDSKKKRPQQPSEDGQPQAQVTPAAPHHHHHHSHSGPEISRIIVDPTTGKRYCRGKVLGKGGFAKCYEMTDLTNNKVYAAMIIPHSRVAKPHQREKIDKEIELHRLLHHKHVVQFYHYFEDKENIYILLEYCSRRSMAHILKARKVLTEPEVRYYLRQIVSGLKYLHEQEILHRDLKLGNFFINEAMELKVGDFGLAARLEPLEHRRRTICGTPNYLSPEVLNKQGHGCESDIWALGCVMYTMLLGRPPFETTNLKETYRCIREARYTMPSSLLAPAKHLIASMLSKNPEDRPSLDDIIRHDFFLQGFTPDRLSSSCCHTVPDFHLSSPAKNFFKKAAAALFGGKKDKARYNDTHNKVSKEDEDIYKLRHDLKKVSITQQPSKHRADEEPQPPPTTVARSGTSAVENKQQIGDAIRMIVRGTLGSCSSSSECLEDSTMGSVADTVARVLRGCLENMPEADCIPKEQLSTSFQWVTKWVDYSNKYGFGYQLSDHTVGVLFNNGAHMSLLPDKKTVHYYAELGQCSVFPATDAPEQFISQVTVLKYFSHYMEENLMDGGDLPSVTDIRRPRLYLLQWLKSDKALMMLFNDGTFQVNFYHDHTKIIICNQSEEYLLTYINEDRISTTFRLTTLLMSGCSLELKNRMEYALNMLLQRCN

| relative binding affinity in ELISA-based Plk1 inhibition assay [1] | band for binding to Plk2 in pull-down (Flag-Plk2 (K108M)) | band for binding to Plk2 in pull-down (Flag-Plk2 (K108M); listed as 7*) | Molecule |
| --- | --- | --- | --- |
| significant loss of affinity |  |  | 8(S4A): variant of 8 with the serine residue replaced by alanine (P(Butyl(4-Ph))LHA[pT]) |
| significant loss of affinity |  |  | CC(=O)N1C[C@H](OCCCCc2ccccc2)C[C@H]1C(=O)N[C@@H](CC(C)C)C(=O)N[C@@H](Cc1c[nH]cn1)C(=O)N[C@@H](C)C(=O)N[C@H](C(N)=O)[C@@H](C)OP(=O)(O)O [7(S4A)] (Ac-[Hyp](Butyl(4-Ph))LHA[pT]-NH2; N-terminus and C-terminus assumed) |
|  | faint band | not seen | CC(=O)N1C[C@H](OCCCCc2ccccc2)C[C@H]1C(=O)N[C@@H](CC(C)C)C(=O)N[C@@H](Cc1c[nH]cn1)C(=O)N[C@@H](CO)C(=O)N[C@H](C(N)=O)[C@@H](C)OP(=O)(O)O [compound 7] |

Source: PMC3355227 (ACS Chemical Biology, 2012)
